What all share (type): biochemical
In one assay the target is T1, HCV protease (Hepatitis C virus genotype 1a, UniProt P27958).
T1 construct: HCV protease was used in a similar fluorogenic assay
The note with it: Chip; 25 mM TRIS/HCL, pH 8.5, 0.1% Triton X-100, 10 mM DTT, 1M NDSB-195.

Assay [1] addresses T2, LAR phosphatase (Homo sapiens, UniProt P10586). Kind of assay: Continuous flow LAR phosphatase assay with fluorogenic substrate dFMUP on a 7A microchip. From the text: In many cases, the biochemical system that is being assayed can be selected or engineered to have an easily detectable result. For example, assaying enzyme function is typically made simple by utilizing fluorogenic substrates for the enzyme, e.g., non-fluorescent substrates which yield fluorescent products. Such assays are readily incorporated into microfluidic devices for performance of assays to identify compounds that may effect normal enzyme activity. In one embodiment, using a 7A chip as described supra (see, e.g., FIG. 7), one continuously flows enzyme and fluorogenic substrate through a channel of the device. This continuous flow of enzyme and substrate produces a steady state fluorescent signal from the fluorescent product. Enzyme inhibitor (or, e.g., compounds for which one wishes to test inhibitory activity) are periodically introduced into the main channel. These inhibitors then reduce the amount of product produced within the main channel resulting in a deviation from the steady state signal. Specifically, both phosphatase assays and protease assays were performed using a 7A chip.
The phosphatase assay utilizes a fluorogenic substrate dFMU, which produces a fluorescent signal upon dephosphorylation. The reaction is shown schematically in FIG. 12. […] In this experiment, the running buffer was 1 M NDSB-195 in 25 mM HEPES, pH 7.9. Reagent concentrations were 125 nM LAR, 50 μM dFMUP and 200 μM peptide inhibitor in wells 6, 8 and 2 respectively. Each reagent well was paired with a well containing running buffer. The system was programmed to repeatedly run a sixteen-step loop of experiments. The sixteen steps were a series of controls followed by the enzyme plus substrate experiment. Each step of the loop conserved the total current flux in the main reaction channel. The total flux remained constant during each step of the loop by maintaining a constant sum of currents from the wells. The proportion of that overall flux from each reagent and buffer well was selected to provide the desired final reagent concentration in the main reaction channel. The fluorescence response was monitored in each of the sixteen experimental steps where the continuous flow stream alternated between buffer, substrate, buffer, substrate plus enzyme at four different substrate concentrations. An example of a controller program is shown below, Table 2.
The substrate concentration was varied for each sequence of three controls followed by the enzyme reaction. The concentrations of the reagents in the main channel can be calculated from the ratio of currents used to pump the reagents. The concentrations in the reaction channel are simply the concentration in the well multiplied by the ratio of current applied at that well, divided by the total current. Here the reaction mixture was […], and either 5, 12.5, 17 or 25 μM dFMUP. The raw fluorescence data is plotted as a function of time. […] Rise times for the enzyme/substrate signal are less than 5 seconds. The background signal remained low over the course of many experimental cycles.
The raw data for the Km, Vmax, kcat and Ki determinations are plotted in FIG. 14. Each trace represents a set of experiments performed in seven step cycles. The enzyme solution was pumped continuously, providing a final concentration of 83 nM LAR in 1 M NDSB-195, 50 mM HEPES, pH 7.5 in the reaction channel, while the signal at various substrate concentrations was recorded. The first step of the cycle is an enzyme only control. Steps two through six contain different levels of substrate up to an including 17 μM dFMUP. The final step of the cycle is a substrate only control, 17 μM dFMUP with no enzyme. The entire experiment, (no peptide inhibitor), was repeated at two inhibitor concentrations, 35 uM and 69 uM peptide. […]

Assay [2] has as its target T2, LAR phosphatase. Kind of assay: LAR phosphatase/dFMUP assay in a cuvette on the spectrophotometer. The note with it: 1M NDSB-195/50 mM Hepes, pH 7.5, 0.1 mg/ml BSA. On the procedure: A least squares fit of the three straight lines: no inhibitor, 35 μM and 69 μM peptide, was performed with the constraint that they meet at a common intercept on the y axis, 1/Vmax FIG. 15. […] The kcat is 4.74 μmol/min nmol LAR. The parallel analysis performed on the spectrophotometer in the same running buffer yielded a kcat of 6 μmol/min nmol LAR. […] The same analysis performed in a cuvette experiment with 1 mg/ml BSA in the running buffer gave 167 μM peptide.
In addition to the above kinetic studies, rate as a function of substrate concentration data was collected on three separate chips in order to consider interchip reproducibility for Km analyses. The combined data were used to prepare a double reciprocal plot. […] This is in excellent agreement with cuvette experiments performed on the spectrophotometer where dFMU was detected at 360 nm in a temperature controlled cuvette at 25° C.

Setting [3] is: chip, 50 mM HEPES, pH 7.5, 10 mM DTT, 0.5 M NDSB-195.

T2 sequence (P10586 30-1907): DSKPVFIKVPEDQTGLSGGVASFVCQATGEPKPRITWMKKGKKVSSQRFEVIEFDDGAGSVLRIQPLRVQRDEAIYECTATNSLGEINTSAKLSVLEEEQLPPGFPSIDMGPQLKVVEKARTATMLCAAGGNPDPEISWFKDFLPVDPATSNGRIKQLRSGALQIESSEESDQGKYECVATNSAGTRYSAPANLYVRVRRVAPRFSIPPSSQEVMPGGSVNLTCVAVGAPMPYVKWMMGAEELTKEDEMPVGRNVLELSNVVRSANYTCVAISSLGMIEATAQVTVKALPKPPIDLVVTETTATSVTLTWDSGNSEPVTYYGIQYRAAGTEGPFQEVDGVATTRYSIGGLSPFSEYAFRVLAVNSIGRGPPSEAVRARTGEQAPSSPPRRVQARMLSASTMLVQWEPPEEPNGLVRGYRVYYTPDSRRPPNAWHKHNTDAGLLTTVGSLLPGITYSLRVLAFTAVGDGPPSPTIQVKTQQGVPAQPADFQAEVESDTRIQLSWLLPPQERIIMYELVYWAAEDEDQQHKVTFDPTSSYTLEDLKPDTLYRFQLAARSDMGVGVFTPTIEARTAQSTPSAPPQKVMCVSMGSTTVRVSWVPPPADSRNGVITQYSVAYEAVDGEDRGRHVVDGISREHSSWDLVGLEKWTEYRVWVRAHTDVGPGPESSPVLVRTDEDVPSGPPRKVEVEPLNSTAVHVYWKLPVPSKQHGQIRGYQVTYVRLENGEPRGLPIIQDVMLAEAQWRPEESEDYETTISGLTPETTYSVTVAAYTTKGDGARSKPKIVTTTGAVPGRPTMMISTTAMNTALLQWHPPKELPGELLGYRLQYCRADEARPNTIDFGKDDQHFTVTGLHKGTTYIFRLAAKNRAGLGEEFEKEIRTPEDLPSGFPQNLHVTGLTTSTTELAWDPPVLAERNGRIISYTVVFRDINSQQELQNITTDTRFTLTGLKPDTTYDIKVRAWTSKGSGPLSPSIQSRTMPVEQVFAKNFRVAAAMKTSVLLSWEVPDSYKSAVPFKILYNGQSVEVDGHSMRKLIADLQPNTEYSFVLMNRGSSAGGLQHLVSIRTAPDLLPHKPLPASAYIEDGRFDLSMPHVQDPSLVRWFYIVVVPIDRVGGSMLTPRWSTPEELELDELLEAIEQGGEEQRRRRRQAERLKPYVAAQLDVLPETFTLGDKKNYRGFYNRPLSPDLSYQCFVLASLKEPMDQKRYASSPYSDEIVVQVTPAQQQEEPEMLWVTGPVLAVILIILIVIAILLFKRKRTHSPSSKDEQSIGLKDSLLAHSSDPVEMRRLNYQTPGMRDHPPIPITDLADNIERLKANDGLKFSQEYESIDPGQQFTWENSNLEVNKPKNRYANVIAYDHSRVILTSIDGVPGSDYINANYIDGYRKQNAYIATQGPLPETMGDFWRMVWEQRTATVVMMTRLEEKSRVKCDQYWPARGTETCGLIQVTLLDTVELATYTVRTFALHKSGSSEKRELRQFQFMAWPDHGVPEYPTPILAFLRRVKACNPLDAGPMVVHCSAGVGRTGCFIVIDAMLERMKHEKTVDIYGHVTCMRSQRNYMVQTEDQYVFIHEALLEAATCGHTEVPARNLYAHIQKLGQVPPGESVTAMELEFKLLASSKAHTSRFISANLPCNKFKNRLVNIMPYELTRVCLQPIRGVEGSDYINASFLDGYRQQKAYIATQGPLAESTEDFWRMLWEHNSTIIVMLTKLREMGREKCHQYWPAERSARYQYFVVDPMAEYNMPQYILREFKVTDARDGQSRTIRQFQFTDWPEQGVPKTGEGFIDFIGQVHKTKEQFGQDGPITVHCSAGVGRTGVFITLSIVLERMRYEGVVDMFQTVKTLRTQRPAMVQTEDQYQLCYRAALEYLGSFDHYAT
T1 sequence (P27958 1027-1208): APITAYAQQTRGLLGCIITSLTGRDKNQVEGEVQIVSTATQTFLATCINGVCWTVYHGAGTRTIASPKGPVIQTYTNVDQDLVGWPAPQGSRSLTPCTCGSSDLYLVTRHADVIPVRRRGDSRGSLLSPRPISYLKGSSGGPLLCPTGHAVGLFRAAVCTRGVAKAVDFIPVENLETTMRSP
Description for HCV protease: The product fluorescence is proportional to the amount of cleaved substrate. The height of the product signal is proportional to the rate of enzyme turnover for that substrate concentration. The rate of fluorescence generation can be assessed as the fluorescence signal per mixing time of substrate and enzyme in the reaction channel. That mixing time is determined by the mean residence time of the fluorescent product in the reaction channel as it is electrokinetically pumped from the source of the mixing to the detector. Km was determined from the Michaelis Menton equation.
Due to the chemistry of this FRET quenching reaction, several considerations for accurate measurement of Km on the Labchip™ exist. (1.) There is not an accurate calibration curve for the EDANS labeled product. (2) Accurate determination of the substrate concentration in the Labchip™ reagent well by a simple spectrophotometric measurement is not performed. […]
Note however that this well controlled background fluorescence is not the substrate only background. The extent of substrate hydrolysis over time could not be measured in the continuous flow analysis where enzyme was pumped throughout the course of the experiments. […]
The average percent inhibition response was calculated for the first three inhibited and uninhibited signals at the start of each hour.

In the case of `C/C=C1\NC(=O)[C@H]2CSSCC/C=C/[C@H](CC(=O)N[C@H](C(C)C)C(=O)N2)OC(=O)[C@H](C(C)C)NC1=O` [Depsipeptide], at HCV protease, the Km turned out to be 110 µM.

Consider `Cc1cc(=O)oc2c(F)c(OP(=O)(O)O)c(F)cc12` [dFMUP], for which the kcat was 4.74 μmol/min nmolLAR at LAR phosphatase [1] (Chip, 1M NDSB-195/50 mM Hepes, pH 7.5, 83 nM LAR); 3000 to 5000 min⁻¹ on LAR phosphatase [1] (setting [3]); 6 μmol/min nmolLAR on LAR phosphatase [2] (Cuvette (spectrophotometer)). For the same compound, the Km is 18.7 µM at LAR phosphatase [1] (Chip, 1M NDSB-195/50 mM Hepes, pH 7.5, average of three chips, read-out: Km LAR/dFMUP); 18.2 µM on LAR phosphatase [1] (Chip, combined data of three separate chips, double reciprocal plot, read-out: Km); 20 to 400 µM on LAR phosphatase [1] (chip, 50 mM HEPES, pH 7.5, 10 mM DTT, 0.5 M NDSB-195, read-out: Km); 23.2 µM at LAR phosphatase [2] (Cuvette, 25° C, average of four determinations). Also, the Vmax on LAR phosphatase [1] (Chip, least squares fit of Lineweaver-Burke lines, 83 nM LAR) is reported as 6.71 μM dFMU/s; on LAR phosphatase [1] (setting [3]) it was 0.011 mM/s.

(Values after patent US6613512B1, “Apparatus and method for correcting for variable velocity in microfluidic systems” (Caliper Technologies Corp., priority 1997, dated 2003).)
